According to patent US20180148418A1, “AMIDO-SUBSTITUTED CYCLOHEXANE DERIVATIVES” (Bayer Pharma Aktiengesellschaft, priority 2015, published 2018):
Where a name gives a salt, the structure may show the parent alone.

Legend:
[1] = test system: wildtype Wnt signaling cascade; experiment: HEK293 TOP assay (Super TopFlash luciferase reporter, Wnt-3a stimulated); assay type: cell-based; details: Homo sapiens, HEK293, 16 h, HEK293 TOP reporter cells, Wnt3a at EC50, 16 hours
Outline: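 Compound series (50 μM down to 15 nM, 3.16-fold) diluted from DMSO 50-fold into CAFTY buffer, pH 7.4, 2 mM Ca^2+, 0.01% BSA, applied to Wnt-3a-stimulated HEK293 TopFlash and FOP reporter lines in parallel. Cells seeded 10000/well 24 h before; luciferase signal measured.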

[2] = target: T1, TNKS1 (Homo sapiens, UniProt O95271); experiment: TNKS1 Assay B (auto-parsylation, [3H]-NAD+ SPA); assay type: biochemical; details: 6 nM TNKS1, auto-parsylation, over night at room temperature
T1 construct: purchased BPS Bioscience, San Diego, USA 80579 (TNKS1 Histone Ribosylation Assay Kit)
T1 sequence (O95271 1-1327): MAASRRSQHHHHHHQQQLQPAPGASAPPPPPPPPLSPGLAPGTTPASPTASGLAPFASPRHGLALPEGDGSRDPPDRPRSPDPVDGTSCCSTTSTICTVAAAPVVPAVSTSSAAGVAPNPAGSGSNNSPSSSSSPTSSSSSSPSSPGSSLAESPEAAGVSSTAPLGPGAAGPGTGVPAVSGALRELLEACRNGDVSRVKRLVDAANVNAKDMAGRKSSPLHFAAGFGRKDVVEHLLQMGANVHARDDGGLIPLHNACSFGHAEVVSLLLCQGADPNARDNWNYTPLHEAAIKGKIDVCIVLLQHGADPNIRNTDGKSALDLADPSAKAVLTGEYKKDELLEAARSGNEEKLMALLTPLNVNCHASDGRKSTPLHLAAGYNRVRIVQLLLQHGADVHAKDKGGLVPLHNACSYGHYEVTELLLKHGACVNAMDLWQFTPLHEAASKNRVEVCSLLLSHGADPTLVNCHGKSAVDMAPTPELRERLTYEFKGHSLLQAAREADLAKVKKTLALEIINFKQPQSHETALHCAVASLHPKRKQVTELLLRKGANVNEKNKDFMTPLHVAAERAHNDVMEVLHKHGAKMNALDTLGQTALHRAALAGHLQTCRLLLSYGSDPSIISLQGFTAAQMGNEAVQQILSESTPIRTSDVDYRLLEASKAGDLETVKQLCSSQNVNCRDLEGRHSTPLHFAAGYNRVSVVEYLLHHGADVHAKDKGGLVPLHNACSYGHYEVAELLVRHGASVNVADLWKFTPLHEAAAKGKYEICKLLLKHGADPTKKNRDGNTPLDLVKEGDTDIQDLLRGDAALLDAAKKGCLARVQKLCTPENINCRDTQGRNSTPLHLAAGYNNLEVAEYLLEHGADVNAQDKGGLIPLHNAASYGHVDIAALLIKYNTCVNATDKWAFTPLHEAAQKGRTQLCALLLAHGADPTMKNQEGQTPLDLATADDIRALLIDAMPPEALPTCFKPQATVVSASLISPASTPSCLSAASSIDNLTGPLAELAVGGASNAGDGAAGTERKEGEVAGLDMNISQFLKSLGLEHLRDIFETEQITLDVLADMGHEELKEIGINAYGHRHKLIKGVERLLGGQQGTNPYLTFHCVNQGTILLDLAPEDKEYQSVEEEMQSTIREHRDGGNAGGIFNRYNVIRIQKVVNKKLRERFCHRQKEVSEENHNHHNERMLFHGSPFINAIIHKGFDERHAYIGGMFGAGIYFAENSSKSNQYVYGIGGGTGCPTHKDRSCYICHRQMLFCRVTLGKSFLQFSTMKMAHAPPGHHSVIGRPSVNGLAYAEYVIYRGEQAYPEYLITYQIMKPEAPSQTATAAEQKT

SMILES | IC50 [1] [µM] | IC50 [2] [µM]
O=C(NCC(F)(F)F)c1nc[nH]c1C(=O)N[C@H]1CC[C@@]2(CCN(c3cc(F)c(F)cc3Cl)C2=O)CC1 [Example 201, N^5-[(trans)-2-(2-chloro-4,5-difluorophenyl)-1-oxo-2-azaspiro[4.5]dec-8-yl]-N^4-(2,2,2-trifluoroethyl)-1H-imidazole-4,5-dicarboxamide] | 0.00054 | 0.0055
C[C@]1(C(=O)Nc2ccc(F)cc2Cl)CC[C@@H](NC(=O)c2cnn3cccnc23)CC1 [Example 180, N-{cis-4-[(2-chloro-4-fluorophenyl)carbamoyl]-4-methylcyclohexyl}pyrazolo[1,5-a]pyrimidine-3-carboxamide] | 7.6 | > 10
CC(C)NC(=O)c1nc[nH]c1C(=O)N[C@H]1CC[C@H](C(=O)Nc2ccc(F)cc2Cl)CC1 [Example 20, N^5-{trans-4-[(2-chloro-4-fluorophenyl)carbamoyl]cyclohexyl}-N^4-isopropyl-1H-imidazole-4,5-dicarboxamide] | 0.22 | 0.09
CNC(=O)c1nc[nH]c1C(=O)N[C@H]1CC[C@]2(CCN(c3ccc(F)cc3Cl)C2=O)CC1 [Example 182, N^5-[(cis)-2-(2-chloro-4-fluorophenyl)-1-oxo-2-azaspiro[4.5]dec-8-yl]-N^4-methyl-1H-imidazole-4,5-dicarboxamide] | 0.19 | 2.2
CN1CC2(C1)CN(C(=O)c1nc[nH]c1C(=O)N[C@H]1CC[C@@]3(CCN(c4ccc(F)cc4Cl)C3=O)CC1)C2 [Example 185, N-[(trans)-2-(2-chloro-4-fluorophenyl)-1-oxo-2-azaspiro[4.5]dec-8-yl]-4-[(6-methyl-2,6-diazaspiro[3.3]hept-2-yl)carbonyl]-1H-imidazole-5-carboxamide] | 0.0061 | 0.0087
O=C(N[C@H]1CC[C@H](C(=O)Nc2ccc(F)cc2Cl)CC1)c1[nH]cnc1C(=O)N1CC2(COC2)C1 [Example 14, N-{trans-4-[(2-chloro-4-fluorophenyl)carbamoyl]cyclohexyl}-4-(2-oxa-6-azaspiro[3.3]hept-6-ylcarbonyl)-1H-imidazole-5-carboxamide] | 0.12 | 0.063
CNC(=O)c1nc[nH]c1C(=O)N[C@H]1CC[C@H](C(=O)N(C)c2ccccc2C)CC1 [Example 203, N^4-methyl-N^5-{trans-4-[methyl(2-methylphenyl)carbamoyl]cyclohexyl}-1H-imidazole-4,5-dicarboxamide] | 25 | 0.63
Cc1cnc2c(C(=O)N[C@H]3CC[C@@]4(CCN(c5ccc(F)cc5)C4=O)CC3)cnn2c1 [Example 210, N-[(trans)-2-(4-fluorophenyl)-1-oxo-2-azaspiro[4.5]dec-8-yl]-6-methylpyrazolo[1,5-a]pyrimidine-3-carboxamide] | 0.28 | 0.39
O=C(NCC(F)(F)F)c1nc[nH]c1C(=O)N[C@H]1CC[C@H](C(=O)Nc2ccc(F)cc2Cl)CC1 [Example 21, N^5-{trans-4-[(2-chloro-4-fluorophenyl)carbamoyl]cyclohexyl}-N^4-(2,2,2-trifluoroethyl)-1H-imidazole-4,5-dicarboxamide] | 0.079 | 0.037
CNC(=O)c1nc[nH]c1C(=O)N[C@H]1CC[C@H](C(=O)Nc2cccnc2Cl)CC1 [Example 10, N^5-{trans-4-[(2-chloropyridin-3-yl)carbamoyl]cyclohexyl}-N^4-methyl-1H-imidazole-4,5-dicarboxamide] | 0.09 | 0.25
CN1CC2(CCN(C(=O)c3nc[nH]c3C(=O)N[C@H]3CC[C@@]4(CCN(c5ccc(F)cc5Cl)C4=O)CC3)C2)C1 [Example 184, N-[(trans)-2-(2-chloro-4-fluorophenyl)-1-oxo-2-azaspiro[4.5]dec-8-yl]-4-[(2-methyl-2,6-diazaspiro[3.4]oct-6-yl)carbonyl]-1H-imidazole-5-carboxamide] | 0.021 | 0.01
CNC(=O)c1nc[nH]c1C(=O)N[C@H]1CC[C@H](C(=O)Nc2ccncc2Cl)CC1 [Example 11, N^5-{trans-4-[(3-chloropyridin-4-yl)carbamoyl]cyclohexyl}-N^4-methyl-1H-imidazole-4,5-dicarboxamide] | 0.14 | 0.26

Continued, values first:

IC50 [1] [µM] | IC50 [2] [µM] | SMILES
0.09 | 0.45 | CC(C)NC(=O)c1nc[nH]c1C(=O)N[C@H]1CC[C@@]2(CCN(c3cccc(Cl)c3)C2=O)CC1 [Example 278, N^5-[(trans)-2-(3-chlorophenyl)-1-oxo-2-azaspiro[4.5]dec-8-yl]-N^4-(propan-2-yl)-1H-imidazole-4,5-dicarboxamide]
0.088 | 0.56 | CNC(=O)c1[nH]cnc1C(=O)N[C@H]1CC[C@@]2(CCN(c3ccc(F)cc3)C2=O)CC1 [Example 212, N^4-[(trans)-2-(4-fluorophenyl)-1-oxo-2-azaspiro[4.5]dec-8-yl]-N^5-methyl-1H-imidazole-4,5-dicarboxamide]
0.0028 | 0.0074 | CC1CCN(CCNC(=O)c2nc[nH]c2C(=O)N[C@H]2CC[C@@]3(CCN(c4ccccc4Cl)C3=O)CC2)CC1 [Example 260, N^5-[(trans)-2-(2-chlorophenyl)-1-oxo-2-azaspiro[4.5]dec-8-yl]-N^4-[2-(4-methylpiperidin-1-yl)ethyl]-1H-imidazole-4,5-dicarboxamide]
0.00083 | 0.014 | Cc1cc(C(F)F)n2ncc(C(=O)N[C@H]3CC[C@@]4(CCN(c5ccc(F)cc5Cl)C4=O)CC3)c2n1 [Example 224, N-[(trans)-2-(2-chloro-4-fluorophenyl)-1-oxo-2-azaspiro[4.5]dec-8-yl]-7-(difluoromethyl)-5-methylpyrazolo[1,5-a]pyrimidine-3-carboxamide]
0.0023 | 0.02 | CNC(=O)c1nc[nH]c1C(=O)N[C@H]1CC[C@@]2(CCN(c3ccccc3Cl)C2=O)CC1 [Example 264, N^5-[(trans)-2-(2-chlorophenyl)-1-oxo-2-azaspiro[4.5]dec-8-yl]-N^4-methyl-1H-imidazole-4,5-dicarboxamide]
0.023 | 0.22 | O=C(N[C@H]1CC[C@@]2(CCN(c3cccc(Cl)c3)C2=O)CC1)c1[nH]cnc1C(=O)N1CC(F)C1 [Example 280, N-[(trans)-2-(3-chlorophenyl)-1-oxo-2-azaspiro[4.5]dec-8-yl]-4-[(3-fluoroazetidin-1-yl)carbonyl]-1H-imidazole-5-carboxamide]
0.0014 | 0.01 | Cc1cc(C)n2ncc(C(=O)N[C@H]3CC[C@@]4(CCN(c5ccccc5Cl)C4=O)CC3)c2n1 [Example 257, N-[(trans)-2-(2-chlorophenyl)-1-oxo-2-azaspiro[4.5]dec-8-yl]-5,7-dimethylpyrazolo[1,5-a]pyrimidine-3-carboxamide]
0.032 | 0.0082 | O=C(N[C@H]1CC[C@@]2(CCN(c3ccc(F)cc3Cl)C2=O)CC1)c1cnn2ccc(N3CCNCC3)nc12 [Example 226, N-[(trans)-2-(2-chloro-4-fluorophenyl)-1-oxo-2-azaspiro[4.5]dec-8-yl]-5-(piperazin-1-yl)pyrazolo[1,5-a]pyrimidine-3-carboxamide hydrochloric acid salt]
0.071 | 0.57 | Cc1nn2cccnc2c1C(=O)N[C@H]1CC[C@@]2(CCN(c3ccc(F)cc3Cl)C2=O)CC1 [Example 216, N-[(trans)-2-(2-chloro-4-fluorophenyl)-1-oxo-2-azaspiro[4.5]dec-8-yl]-2-methylpyrazolo[1,5-a]pyrimidine-3-carboxamide]
0.0066 | 0.02 | Cc1cc(C)n2ncc(C(=O)N[C@H]3CC[C@@]4(CCN(c5cc(C)c(F)cc5Cl)C4=O)CC3)c2n1 [Example 266, N-[(trans)-2-(2-chloro-4-fluoro-5-methylphenyl)-1-oxo-2-azaspiro[4.5]dec-8-yl]-5,7-dimethylpyrazolo[1,5-a]pyrimidine-3-carboxamide]
